Laboratory results taken from article PMC6838323 (2019).

Assays:
Test in all cases: fluorescence (Cy3/DABCYL) titration, two-site fit
Conditions in all cases: 6 mM Mg2+; 10 mM Tris-HCl pH 7.5, 25 °C; 250 nM aptamer; apparent; ATP up to 6.75 mM
[1] = test system: 9_23 (DNA, aptamer) CACCTGGGGGAGTATTGCGGAGGAAGGTTTTTCCCCAGGTG
[2] = test system: 9_25 (DNA, aptamer) CACCTGGGGGAGTATTGCGGAGGAAGGTTTTTTTCCCCAGGTG
[3] = test system: 9_33 (DNA, aptamer) CACCTGGGGGAGTATTGCGGAGGAAGGTTTTTTTTTTTTTTTCCCCAGGTG
[4] = test system: 9_36 (DNA, aptamer) CACCTGGGGGAGTATTGCGGAGGAAGGTTTTTTTTTTTTTTTTTTCCCCAGGTG
[5] = test system: 9_43 (DNA, aptamer) CACCTGGGGGAGTATTGCGGAGGAAGGTTTTTTTTTTTTTTTTTTTTTTTTTCCCCAGGTG
[6] = test system: 8_23 (DNA, aptamer) CACCTGGGGGAGTATTGCGGAGGAAGGTTTTCCCAGGTG
[7] = test system: 8_25 (DNA, aptamer) CACCTGGGGGAGTATTGCGGAGGAAGGTTTTTTCCCAGGTG
[8] = test system: 8_33 (DNA, aptamer) CACCTGGGGGAGTATTGCGGAGGAAGGTTTTTTTTTTTTTTCCCAGGTG
[9] = test system: 8_36 (DNA, aptamer) CACCTGGGGGAGTATTGCGGAGGAAGGTTTTTTTTTTTTTTTTTCCCAGGTG
[10] = test system: 8_43 (DNA, aptamer) CACCTGGGGGAGTATTGCGGAGGAAGGTTTTTTTTTTTTTTTTTTTTTTTTCCCAGGTG
[11] = test system: 7_23 (DNA, aptamer) CACCTGGGGGAGTATTGCGGAGGAAGGTTTCCAGGTG
[12] = test system: 7_25 (DNA, aptamer) CACCTGGGGGAGTATTGCGGAGGAAGGTTTTTCCAGGTG
[13] = test system: 7_33 (DNA, aptamer) CACCTGGGGGAGTATTGCGGAGGAAGGTTTTTTTTTTTTTCCAGGTG
[14] = test system: 7_36 (DNA, aptamer) CACCTGGGGGAGTATTGCGGAGGAAGGTTTTTTTTTTTTTTTTCCAGGTG
[15] = test system: 7_43 (DNA, aptamer) CACCTGGGGGAGTATTGCGGAGGAAGGTTTTTTTTTTTTTTTTTTTTTTTCCAGGTG
[16] = test system: 6_23 (DNA, aptamer) CACCTGGGGGAGTATTGCGGAGGAAGGTTCAGGTG
[17] = test system: 6_25 (DNA, aptamer) CACCTGGGGGAGTATTGCGGAGGAAGGTTTTCAGGTG
[18] = test system: 6_33 (DNA, aptamer) CACCTGGGGGAGTATTGCGGAGGAAGGTTTTTTTTTTTTCAGGTG
[19] = test system: 6_36 (DNA, aptamer) CACCTGGGGGAGTATTGCGGAGGAAGGTTTTTTTTTTTTTTTCAGGTG

KDeff [1]: 39.0 ± 35.7 mM
KDeff [2]: 12.8 ± 1.7 mM
KDeff [3]: 4.98 ± 0.53 mM
KDeff [4]: 2.72 ± 1.47 mM
KDeff [5]: 0.967 ± 0.085 mM
KDeff [6]: 3.58 ± 1.37 mM
KDeff [7]: 2.29 ± 0.05 mM
KDeff [8]: 0.734 ± 0.01 mM
KDeff [9]: 0.352 ± 0.043 mM
KDeff [10]: 0.388 ± 0.124 mM
KDeff [11]: 0.382 ± 0.034 mM
KDeff [12]: 0.271 ± 0.038 mM
KDeff [13]: 0.0985 ± 0.0481 mM
KDeff [14]: 0.0709 ± 0.0018 mM
KDeff [15]: 0.0298 ± 0.0031 mM
KDeff [16]: 0.0314 ± 0.0111 mM
KDeff [17]: 0.0262 ± 0.0095 mM
KDeff [18]: 0.0182 ± 0.0076 mM
KDeff [19]: 0.0107 ± 0.0019 mM
Structure (SMILES): Nc1ncnc2c1ncn2[C@@H]1O[C@H](COP(=O)(O)OP(=O)(O)OP(=O)(O)O)[C@@H](O)[C@H]1O
